Results reported in patent US20260034125A1, “N-PHENYL-1-(PHENYLSULFONYL)PIPERIDIN-4-AMINE DERIVATIVES AS CCR6 INHIBITORS” (priority 2023, published 2026).

Legend:
Assay type in all cases: cell-based
[1] = target: T1, human CCR6 (Homo sapiens, UniProt P51684); experiment: Human CCR6-Cre reporter assay; design: The second construct contained the open reading frame of human CCR6 in the pUNO1 backbone; host or cells: 293 FT cells; conditions: relative -LogIC50; transfected 293 FT cells, 6 μM Forskolin, 6 nM CCL20, luciferase readout, 5h
T1 sequence (P51684 1-374): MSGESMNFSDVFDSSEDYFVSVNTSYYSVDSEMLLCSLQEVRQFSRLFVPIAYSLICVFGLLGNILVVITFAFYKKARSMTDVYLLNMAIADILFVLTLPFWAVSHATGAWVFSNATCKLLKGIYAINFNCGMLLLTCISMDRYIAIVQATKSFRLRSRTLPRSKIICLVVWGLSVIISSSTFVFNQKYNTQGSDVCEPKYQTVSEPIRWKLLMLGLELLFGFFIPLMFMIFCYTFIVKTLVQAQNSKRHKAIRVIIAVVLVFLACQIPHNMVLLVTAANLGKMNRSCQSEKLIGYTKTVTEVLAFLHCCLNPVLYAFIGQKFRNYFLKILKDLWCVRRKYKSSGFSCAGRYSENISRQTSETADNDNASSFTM
Procedure: 293 FT cells were transfected with 2 constructs using TransIT-293 (Mirus). The first construct (pGL4.29, Promega) expressed the luciferase reporter gene luc2P in response to the binding of cAMP-induced CREB to the CRE element in its promoter. The second construct contained the open reading frame of human CCR6 in the pUNO1 backbone under the control of an enhanced CMV promoter (In VivoGen). 48h after transfection, cells were harvested and diluted to 750,000 cells/ml in culture medium (DMEM, 10% FBS, 1× pen/strep (Gibco 15140)). Compounds were 2.5-fold serially diluted in DMSO. Further dilutions were made in assay medium (DMEM, 10% FBS, 1× pen/strep, 6 μM Forskolin, 6 nM CCL20). 4 μl of the compound solution was added to a white MW384 plate, followed by 20 μl of the cell suspension. Final DMSO concentration in the assay was 0.1%. The MW384 plate was placed in an incubator at 37° C., 5% CO2 for 5h. Luciferase activity was determined by addition of 24 μl of a 2.5× diluted BriteLite luciferase solution (Perkin Elmer), followed by luminescence measurement using a VICTOR Plate reader (Perkin Elmer). […] The relative-LogIC50 was determined with GraphPad Prism 9 using a four-parameter dose-response model.

[2] = target: T1, human CCR6; experiment: CHO-K1 CCR6 chemotaxis assay towards CCL20; conditions: relative -LogIC50; CHO-K1 cells overexpressing human CCR6, 100 ng/ml CCL20, Transwell, 4 h
Source text: Cells overexpressing human CCR6 were used in the chemotaxis assay (DiscoverX, CAMP Hunter™ CHO-K1 CCR6 Gi Cell Line). Growth medium of these cells consisted of DMEM/F12, non-essential Amino acids (1×NEAA, Gibco 11140050), 10% FBS and 1× pen/strep (Gibco 15140). For the chemotaxis assay, Corning Transwell plates were used with a pore size of 8 μm (Corning 351164). Cells were harvested using trypsin and diluted to 4*10^6 cells/ml in chemotaxis medium (DMEM, 0.25% BSA, pen/strep). Compounds were four-fold serially diluted in DMSO. Further dilutions were made in chemotaxis medium. Cells were incubated with test compounds for 30 min at 37° C. prior to initiation of the assay (2*10^6 cells/ml). Final DMSO concentration in the assay was 0.2%. Wells of the Transwell plates were filled with 200 μl chemotaxis medium containing 100 ng/ml CCL20 (R&D systems 360-MP). 50 μl of the cell/compound suspension was added to the inserts of the Transwell plates (100,000 cells/insert). The Transwell plates were placed in an incubator at 37° C., 5% CO2 for 4 h. After 4 h, the number of migrated cells was quantified using CellTiter Glo (Promega). Percentage inhibition values were calculated based on the low and high signal obtained with 0.2% DMSO in chemotaxis medium without and with CCL20, respectively. The relative-LogIC50 was determined with GraphPad Prism 9 using a four-parameter dose-response model.

[3] = tested on: Human CD4+ T cells; experiment: CD4+ T cell chemotaxis assay towards CCL20; conditions: relative -LogIC50, 150 ng/ml CCL20, Transwell, 3 h
Source text: Human CD4+ T cells were isolated from buffy coats of healthy donors using a CD4+ T Cell Isolation Kit (Miltenyi Biotec130-096-533). Isolated T cells were stimulated overnight with anti-CD3 and anti-CD28 antibodies (Biolegend 300314/302934) in growth medium (RPMI1640, 10% heat-inactivated FBS, 1× pen/strep (Gibco 15140)). For the chemotaxis assay, Corning Transwell plates were used with a pore size of 5 μm (Corning 3388). T cells were counted and diluted to 6*10^6 cells/ml in chemotaxis medium (RPMI1640, 1% BSA, pen/strep). Compounds were four-fold serially diluted in DMSO. Further dilutions were made in chemotaxis medium. Cells were incubated with test compounds for 30 min at 37° C. prior to initiation of the assay (3*10^6 cells/ml). Final DMSO concentration in the assay was 0.2%. Wells of the Transwell plates were filled with 200 μl chemotaxis medium containing 150 ng/ml CCL20 (R&D systems 360-MP). 50 μl of the cell/compound suspension was added to the inserts of the Transwell plates (150,000 cells/insert). The Transwell plates were placed in an incubator at 37° C., 5% CO2 for 3 h. After 3 h, the number of migrated cells was quantified using CellTiter Glo (Promega). Percentage inhibition values were calculated based on the low and high signal obtained with 0.2% DMSO in chemotaxis medium without and with CCL20, respectively. The relative −LogIC50 was determined with GraphPad Prism 9 using a four-parameter dose-response model.

## N#Cc1c[nH]c2ccc(-c3ccc(S(=O)(=O)N4CCC(Nc5ccc(C6CC6)cc5)CC4)cc3)cc12 [Example 12, 5-[4-({4-[(4-cyclopropylphenyl)Amino]piperidin-1-yl}sulfonyl)phenyl]-1H-indole-3-carbonitrile]
[1]
  IC50: 251 nM
[2]
  IC50: 251 nM

## N#Cc1c[nH]c2ccc(-c3ccc(S(=O)(=O)[C@H]4CC[C@H](Nc5ccc(C6(C(F)(F)F)CC6)cc5)CC4)cc3)cc12 [Example 16, 5-(4-{[trans-4-({4-[1-(trifluoromethyl)cyclopropyl]phenyl}Amino)cyclohexyl]sulfonyl}phenyl)-1H-indole-3-carbonitrile]
[1]
  IC50: 20 nM
[2]
  IC50: 5.01 nM

## O=S(=O)(c1ccc(-c2ccc3nccn3c2)cc1)[C@H]1CC[C@H](Nc2ccc(C3(C(F)(F)F)CC3)cc2)CC1 [Example 17, N-[trans-4-(4-{imidazo[1,2-a]pyridin-6-yl}benzenesulfonyl)cyclohexyl]-4-[1-(trifluoromethyl)cyclopropyl]aniline]
[1]
  IC50: 100 nM
[2]
  IC50: 39.8 nM

## N#Cc1c[nH]c2ccc(-c3ccc(S(=O)(=O)[C@H]4CC[C@H](Nc5ccc(C6COC6)cc5)CC4)cc3)cc12 [Example 19, 5-(4-{[trans-4-{[4-(oxetan-3-yl)phenyl]Amino}cyclohexyl]sulfonyl}phenyl)-1H-indole-3-carbonitrile]
[1]
  IC50: 63.1 nM
[2]
  IC50: 251 nM

## CC(C)c1cnc2ccc(-c3ccc(S(=O)(=O)[C@H]4CC[C@H](Nc5ccc(C6(C(F)(F)F)CC6)cc5)CC4)cc3)cn12 [Example 20, N-[trans-4-{4-[3-(propan-2-yl)imidazo[1,2-a]pyridin-6-yl]benzenesulfonyl}cyclohexyl]-4-[1-(trifluoromethyl)cyclopropyl]aniline]
[1]
  IC50: 100 nM
[2]
  IC50: 3.98 nM

## CC(C)c1nnc2ccc(-c3ccc(S(=O)(=O)N4CCC(Nc5ccc(C6(C(F)(F)F)CC6)cc5)CC4)cc3)cn12 [Example 40, 1-{4-[3-(propan-2-yl)-[1,2,4]triazolo[4,3-a]pyridin-6-yl]benzenesulfonyl}-N-{4-[1-(trifluoromethyl)cyclopropyl]phenyl}piperidin-4-amine]
[1]
  IC50: 50.1 nM
[2]
  IC50: 15.8 nM
[3]
  IC50: 0.631 nM

## O=S(=O)(c1ccc(-c2ccc3nnc(C(F)F)n3c2)cc1)N1CCC(Nc2ccc(C3(C(F)(F)F)CC3)cn2)CC1 [Example 44, N-(1-{4-[3-(difluoromethyl)-[1,2,4]triazolo[4,3-a]pyridin-6-yl]benzenesulfonyl}piperidin-4-yl)-5-[1-(trifluoromethyl)cyclopropyl]pyridin-2-amine]
[1]
  IC50: 50.1 nM
[2]
  IC50: 6.31 nM
[3]
  IC50: 6.31 nM

## NC(=O)c1cc(-c2ccc(S(=O)(=O)N3CCC(Nc4ccc(C5(C(F)(F)F)CC5)cn4)CC3)cc2)ccn1 [Example 45, 4-(4-{[4-({5-[1-(trifluoromethyl)cyclopropyl]pyridin-2-yl}amino)piperidin-1-yl]sulfonyl}phenyl)pyridine-2-carboxamide]
[1]
  IC50: 31.6 nM
[2]
  IC50: 20 nM
[3]
  IC50: 7.94 nM

## Cc1cc(-c2ccc(S(=O)(=O)N3CCC(Nc4ccc(C5(C(F)(F)F)CC5)cn4)CC3)cc2)cn2c(C(C)C)nnc12 [Example 46, N-(1-{4-[8-methyl-3-(propan-2-yl)-[1,2,4]triazolo[4,3-a]pyridin-6-yl]benzenesulfonyl}piperidin-4-yl)-5-[1-(trifluoromethyl)cyclopropyl]pyridin-2-amine]
[1]
  IC50: 63.1 nM
[2]
  IC50: 15.8 nM
[3]
  IC50: 2 nM
